The results in this text go back to ChEMBL document CHEMBL4715742, “Design, synthesis and cytotoxic activities of novel 2,5-diketopiperazine derivatives” (Eur J Med Chem, 2016).

Structures are written as SMILES.

In test [1] the test system is U-937. In words: Induction of apoptosis in human U-937 cells assessed as necrotic cells at 0.015 uM measured after 24 hrs by annexinV/FITC-propidium iodide staining based flow cytometry (reference value: 1.12 to 1.48 %). The test is classed as functional.
Test [2] relates to DU-145. In words: Cytotoxicity against human DU-145 cells assessed as reduction in cell viability measured after 72 hrs by CCK8 assay. The test is classed as functional, cell-based.
Test [3] has as its system HL-60. In words: Cytotoxicity against human HL-60 cells assessed as reduction in cell viability measured after 72 hrs by CCK8 assay. The test is classed as functional, cell-based.
Test [4] relates to U-937. Put plainly: Induction of apoptosis in human U-937 cells assessed as early apoptotic cells at 0.015 uM measured after 24 hrs by annexinV/FITC-propidium iodide staining based flow cytometry (reference value: 1.28 to 1.68 %). The class given is functional.
For test [5], the system named is U-937. Put plainly: Induction of apoptosis in human U-937 cells assessed as apoptotic ratio at 0.015 uM measured after 24 hrs by annexinV/FITC-propidium iodide staining based flow cytometry (reference value: 3.7 +/- 0.3 %). The test is classed as functional.
Test [6] concerns U-937. In words: Induction of apoptosis in human U-937 cells assessed as late apoptotic cells at 0.015 uM measured after 48 hrs by annexinV/FITC-propidium iodide staining based flow cytometry (reference value: 3.27 to 3.41 %). The class given is functional.
Test [7] relates to U-937. In words: Induction of apoptosis in human U-937 cells assessed as late apoptotic cells at 0.015 uM measured after 24 hrs by annexinV/FITC-propidium iodide staining based flow cytometry (reference value: 2.18 to 2.22 %). The class given is functional.
In test [8] the test system is A549. In words: Cytotoxicity against human A549 cells assessed as reduction in cell viability measured after 72 hrs by CCK8 assay. The class given is functional, cell-based.
Test [9] relates to K562. Put plainly: Cytotoxicity against human K562 cells assessed as reduction in cell viability measured after 72 hrs by CCK8 assay. The class given is functional, cell-based.
Test [10] deals with U-937. Put plainly: Induction of apoptosis in human U-937 cells assessed as viable cells at 0.015 uM measured after 24 hrs by annexinV/FITC-propidium iodide staining based flow cytometry (reference value: 95 to 95.1 %). The class given is functional. The following applies: read-out: Activity.
In test [11] the test system is U-937. Put plainly: Induction of apoptosis in human U-937 cells assessed as viable cells at 0.015 uM measured after 48 hrs by annexinV/FITC-propidium iodide staining based flow cytometry (reference value: 93.7 to 94.2 %). The test is classed as functional. The following applies: read-out: Activity.
Test [12] relates to HT-29. Put plainly: Cytotoxicity against human HT-29 cells assessed as reduction in cell viability measured after 72 hrs by CCK8 assay. The test is classed as functional, cell-based.
In test [13] the test system is HeLa. Put plainly: Cytotoxicity against human HeLa cells assessed as reduction in cell viability measured after 72 hrs by CCK8 assay. The test is classed as functional, cell-based.
In test [14] the test system is MCF7. Put plainly: Cytotoxicity against human MCF7 cells assessed as reduction in cell viability measured after 72 hrs by CCK8 assay. The class given is functional, cell-based.
In test [15] the test system is U-937. Put plainly: Induction of apoptosis in human U-937 cells assessed as early apoptotic cells at 0.015 uM measured after 48 hrs by annexinV/FITC-propidium iodide staining based flow cytometry (reference value: 1.78 to 1.88 %). The test is classed as functional.
For test [16], the system named is U-937. Put plainly: Induction of apoptosis in human U-937 cells assessed as apoptotic ratio at 0.015 uM measured after 48 hrs by annexinV/FITC-propidium iodide staining based flow cytometry (reference value: 5.2 +/- 0.2 %). The test is classed as functional.
In test [17] the test system is U-937. In words: Cytotoxicity against human U-937 cells assessed as reduction in cell viability measured after 72 hrs by CCK8 assay. The test is classed as functional, cell-based.
Test [18] relates to U-937. Put plainly: Induction of apoptosis in human U-937 cells assessed as necrotic cells at 0.015 uM measured after 48 hrs by annexinV/FITC-propidium iodide staining based flow cytometry (reference value: 0.794 to 0.955 %). The test is classed as functional.
[19] abbreviates: Homo sapiens, DU-145, 72 h, read-out: IC50.
Setting [20] is: Homo sapiens, HL-60, 72 h, read-out: IC50.
Where [21] appears, read: Homo sapiens, A549, 72 h, read-out: IC50.
Where [22] appears, read: Homo sapiens, K562, 72 h, read-out: IC50.
Setting [23] is: Homo sapiens, HT-29, 72 h, read-out: IC50.
Setting [24] is: Homo sapiens, HeLa, 72 h, read-out: IC50.
[25] abbreviates: Homo sapiens, MCF7, 72 h, read-out: IC50.
[26] abbreviates: Homo sapiens, U-937, 72 h, read-out: IC50.

Regarding `CC(C)(C)c1[nH]cnc1/C=c1\[nH]c(=O)/c(=C/c2ccccc2)[nH]c1=O` [PLINABULIN], the Activity in [1] was 1.13%; in [4], 11.7%; in test [5], 31.8%; in test [6] it was 31.1%; in test [7], 19.3%; in [15], 6.44%. Also, the figures for the Activity in test [16] and in [18] were 38.6% and 1.99%, respectively. The half-inhibitory concentration (IC50) in test [2] (setting [19]) is 14 nM; in test [3] (setting [20]), 14.8 nM; in [8] (setting [21]), 5.5 nM; in [9] (setting [22]), 6.3 nM; in test [12] (setting [23]), 13 nM; in [13] (setting [24]), 8.4 nM. Also, the IC50 in test [14] (setting [25]) was 12.6 nM; in test [17] (setting [26]) it was 6.8 nM. Besides, the viability at 0.015 µM in [10] was found to be 66.9%; in [11], 58.3%.
Turning to `C=CCn1c(=O)/c(=C/CCCCCCCCCCC)[nH]c(=O)/c1=C/c1ccccc1OC`, the IC50 entry in [2] (du-145), in [3] (hl-60), in test [8] (a549), in [9] (k562), in [12] (ht-29) and in test [13] (hela) was “Not Active” each time. Also, the IC50 entry in test [14] (mcf7) and in test [17] (u-937) was “Not Active” each time.
As for `C=CCn1c(=O)/c(=C/CCCCCCCCCC)[nH]c(=O)/c1=C/c1ccccc1OC`, the 50% inhibitory concentration (IC50) result in [2] (du-145), in [3] (hl-60), in [8] (a549), in [9] (k562), in [12] (ht-29) and in test [13] (hela) was “Not Active” in each case. In addition, the IC50 entry in [14] (mcf7) and in test [17] (u-937) was “Not Active” throughout.
In the case of `C=CCn1c(=O)/c(=C/CCCCCC)[nH]c(=O)/c1=C/c1cccc(OC)c1`, the IC50 result in test [2] (du-145), in test [3] (hl-60), in test [8] (a549), in [9] (k562), in [12] (ht-29) and in test [13] (hela) was “Not Active” in each case. Also, the half-maximal inhibitory concentration (IC50) result in [14] (mcf7) and in test [17] (u-937) was “Not Active” in each case.
For the compound `C=CCn1c(=O)/c(=C/c2cccc(Cl)c2Cl)[nH]c(=O)/c1=C/c1ccccc1OC`, the IC50 was found to be 4200 nM in test [2] (setting [19]); 2000 nM in test [3] (setting [20]); 2300 nM in [8] (setting [21]); 900 nM in [9] (setting [22]); 3200 nM in test [12] (setting [23]); 1600 nM in test [13] (setting [24]). Further, the half-maximal inhibitory concentration (IC50) in test [14] (setting [25]) is 2100 nM; in test [17] (setting [26]) it was 500 nM.
On to `C=CCn1c(=O)/c(=C/CCCCCCCC)[nH]c(=O)/c1=C/c1cccc(OC)c1`, for which the IC50 result in [2] (du-145), in [3] (hl-60), in [8] (a549), in test [9] (k562), in test [12] (ht-29) and in [13] (hela) was “Not Active” each time. For the same compound, the IC50 result in test [14] (mcf7) and in test [17] (u-937) was “Not Active” throughout.
On to `C=CCn1c(=O)/c(=C/CCC)[nH]c(=O)/c1=C/c1ccccc1OC`, for which the IC50 entry in [2] (du-145) was “Not Active”; in test [3] (setting [20]), 20400 nM; in test [8] (a549), “Not Active”; in test [9] (setting [22]) it was 8600 nM; in [12] (setting [23]), 28900 nM; in test [13] (setting [24]) it was 21400 nM. Further, the values for the IC50 in test [14] (setting [25]) and in test [17] (setting [26]) were 11100 nM and 6400 nM, respectively.
Take `C=CCn1c(=O)/c(=C/CC)[nH]c(=O)/c1=C/c1cccc(OC)c1`: the half-maximal inhibitory concentration (IC50) entry in test [2] (du-145), in test [3] (hl-60), in test [8] (a549), in test [9] (k562), in [12] (ht-29) and in test [13] (hela) was “Not Active” in each case. The concentration for half-maximal inhibition (IC50) entry in test [14] (mcf7) and in test [17] (u-937) was “Not Active” throughout.
As for `C=CCn1c(=O)/c(=C/CCCCCCCCCCC)[nH]c(=O)/c1=C/c1ccc(OC)cc1`, the 50% inhibitory concentration (IC50) result in test [2] (du-145), in test [3] (hl-60), in test [8] (a549), in [9] (k562), in test [12] (ht-29) and in [13] (hela) was “Not Active” throughout. In addition, the half-inhibitory concentration (IC50) result in test [14] (mcf7) and in test [17] (u-937) was “Not Active” throughout.
`C=CCn1c(=O)/c(=C/CCCCCCCCC)[nH]c(=O)/c1=C/c1cccc(OC)c1`: the IC50 result in [2] (du-145), in test [3] (hl-60), in test [8] (a549), in test [9] (k562), in [12] (ht-29) and in test [13] (hela) was “Not Active” throughout. The 50% inhibitory concentration (IC50) entry in [14] (mcf7) and in test [17] (u-937) was “Not Active” in each case.
Take `C=CCn1c(=O)/c(=C/CCCCCCC)[nH]c(=O)/c1=C/c1ccccc1OC`: the half-inhibitory concentration (IC50) entry in [2] (du-145), in test [3] (hl-60), in test [8] (a549), in [9] (k562), in test [12] (ht-29) and in [13] (hela) was “Not Active” throughout. Further, the IC50 entry in [14] (mcf7) and in test [17] (u-937) was “Not Active” throughout.
For the compound `C=CCn1c(=O)/c(=C/CCC)[nH]c(=O)/c1=C/c1cccc(OC)c1`, the concentration for half-maximal inhibition (IC50) result in [2] (du-145), in test [3] (hl-60), in [8] (a549), in test [9] (k562), in [12] (ht-29) and in test [13] (hela) was “Not Active” each time. In addition, the IC50 result in test [14] (mcf7) and in test [17] (u-937) was “Not Active” in each case.
With `C=CCn1c(=O)/c(=C/CCCCCC)[nH]c(=O)/c1=C/c1ccccc1OC`, the 50% inhibitory concentration (IC50) in test [2] (setting [19]) stood at 11200 nM; in test [3] (setting [20]) it was 10600 nM; in test [8] (setting [21]), 13900 nM; in test [9] (setting [22]), 3600 nM; in test [12] (setting [23]) it was 9800 nM; in test [13] (setting [24]), 7000 nM. The 50% inhibitory concentration (IC50) came to 9300 nM in [14] (setting [25]) and 2600 nM in test [17] (setting [26]).
